PubChem BioAssay AID248 (DTP/NCI, 2004)
Several values for one entry are separate records, joined by “and”; a condition that tells them apart may be missing. Identical values can stand only once. Inconclusive results and toxic doses are left out. Rule as the data show it: active = T/C of 150% or more; inactive = T/C below 125%.

System: L1210 leukemia ip in BDF1 mice, survival T/C
Assay: NCI In Vivo Anticancer Drug Screen. Data for tumor model L1210 Leukemia (intraperitoneal) in B6D2F1 (BDF1) mice
Conditions: endpoint: mean survival time, higher = longer survival
In short: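 Mice bearing the transplanted tumor received compound or vehicle. Survival of the treated group was divided by that of the vehicle-treated control group to give the ratio.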

[1] = dose: 100.0 mg/kg/injection, schedule: Q04DX003 (ip), vehicle: Klucel (hydroxypropylcellulose) (HPC)
[2] = dose: 200.0 mg/kg/injection, schedule: Q01DX009 (ip), vehicle: Klucel (hydroxypropylcellulose) (HPC)
[3] = dose: 400.0 mg/kg/injection, schedule: Q04DX003 (ip), vehicle: Klucel (hydroxypropylcellulose) (HPC)
[4] = dose: 25.0 mg/kg/injection, schedule: Q01DX009 (ip), vehicle: Klucel (hydroxypropylcellulose) (HPC)
[5] = dose: 25.0 mg/kg/injection, schedule: Q01DX009 (ip), vehicle: saline with Tween-80
[6] = dose: 50.0 mg/kg/injection, schedule: Q01DX009 (ip), vehicle: saline with Tween-80
[7] = dose: 100.0 mg/kg/injection, schedule: Q01DX009 (ip), vehicle: Klucel (hydroxypropylcellulose) (HPC)
[8] = dose: 200.0 mg/kg/injection, schedule: Q04DX003 (ip), vehicle: Klucel (hydroxypropylcellulose) (HPC)
[9] = dose: 400.0 mg/kg/injection, schedule: Q01DX009 (ip), vehicle: Klucel (hydroxypropylcellulose) (HPC)
[10] = dose: 100.0 mg/kg/injection, schedule: Q01DX001 (ip), vehicle: saline
[11] = dose: 200.0 mg/kg/injection, schedule: Q01DX001 (ip), vehicle: saline
[12] = dose: 400.0 mg/kg/injection, schedule: Q01DX001 (ip), vehicle: saline
[13] = dose: 100.0 mg/kg/injection, schedule: Q01DX001 (ip), vehicle: carboxymethylcellulose (CMC)
[14] = dose: 200.0 mg/kg/injection, schedule: Q01DX001 (ip), vehicle: carboxymethylcellulose (CMC)
[15] = dose: 400.0 mg/kg/injection, schedule: Q01DX001 (ip), vehicle: carboxymethylcellulose (CMC)
[16] = dose: 25.0 mg/kg/injection, schedule: Q04DX003 (ip), vehicle: saline
[17] = dose: 50.0 mg/kg/injection, schedule: Q04DX003 (ip), vehicle: saline
[18] = dose: 100.0 mg/kg/injection, schedule: Q04DX003 (ip), vehicle: saline
[19] = dose: 200.0 mg/kg/injection, schedule: Q04DX003 (ip), vehicle: saline
[20] = dose: 400.0 mg/kg/injection, schedule: Q04DX003 (ip), vehicle: saline
[21] = dose: 50.0 mg/kg/injection, schedule: Q01DX009 (ip), vehicle: saline
[22] = dose: 100.0 mg/kg/injection, schedule: Q01DX009 (ip), vehicle: saline
[23] = dose: 200.0 mg/kg/injection, schedule: Q01DX009 (ip), vehicle: saline
[24] = dose: 100.0 mg/kg/injection, schedule: Q01DX009 (ip), vehicle: saline with Tween-80

Measured: T/C

CCCCN(C)N=Nc1c(Cl)cc(Cl)cc1C(N)=O
active: [3] 181 % of control
inactive: dose: 100.0 mg/kg/injection, schedule: Q01DX001 (ip), vehicle: other 106 % of control | [1] 106 % of control | dose: 200.0 mg/kg/injection, schedule: Q01DX001 (ip), vehicle: other 107 % of control | [2] 95 % of control | dose: 264.0 mg/kg/injection, schedule: Q01DX001 (ip), vehicle: Klucel (hydroxypropylcellulose) (HPC) 114 % of control | dose: 400.0 mg/kg/injection, schedule: Q01DX001 (ip), vehicle: Klucel (hydroxypropylcellulose) (HPC) 124 % of control

NC(N)=NCC(=O)O
inactive: dose: 75.0 mg/kg/injection, schedule: Q01DX001 (ip), vehicle: saline with Tween-80 105 % of control | dose: 150.0 mg/kg/injection, schedule: Q01DX001 (ip), vehicle: saline with Tween-80 100 % of control | dose: 300.0 mg/kg/injection, schedule: Q01DX001 (ip), vehicle: saline with Tween-80 102 % of control

NC(=Nc1ccccc1)Nc1ccccc1
inactive: dose: 6.25 mg/kg/injection, schedule: Q01DX009 (ip), vehicle: Klucel (hydroxypropylcellulose) (HPC) 101 % of control | dose: 12.5 mg/kg/injection, schedule: Q01DX009 (ip), vehicle: Klucel (hydroxypropylcellulose) (HPC) 101 % of control | dose: 12.5 mg/kg/injection, schedule: Q01DX009 (ip), vehicle: saline with Tween-80 97 % of control | [4] 89 % of control | [5] 102 % of control | dose: 35.0 mg/kg/injection, schedule: Q01DX009 (ip), vehicle: saline 101 % of control | [6] 97 % of control

CC1=NN(c2ccc(S(=O)(=O)O)cc2)/C(=N/N=C(N)N)C1
inactive: dose: 15.0 mg/kg/injection, schedule: Q01DX Z (ip), vehicle: carboxymethylcellulose (CMC) 96 % of control | dose: 30.0 mg/kg/injection, schedule: Q01DX Z (ip), vehicle: carboxymethylcellulose (CMC) 96 % of control | dose: 60.0 mg/kg/injection, schedule: Q01DX Z (ip), vehicle: carboxymethylcellulose (CMC) 97 % of control and 100 % of control | dose: 120.0 mg/kg/injection, schedule: Q01DX Z (ip), vehicle: carboxymethylcellulose (CMC) 100 % of control and 102 % of control | dose: 240.0 mg/kg/injection, schedule: Q01DX Z (ip), vehicle: carboxymethylcellulose (CMC) 101 % of control | dose: 480.0 mg/kg/injection, schedule: Q01DX Z (ip), vehicle: carboxymethylcellulose (CMC) 97 % of control

CC(=O)Nc1ccc(OCCCCOc2ccccc2)cc1
inactive: [7] 87 % of control | [1] 103 % of control | [2] 97 % of control | [8] 100 % of control | [9] 92 % of control | [3] 97 % of control

Cc1csc2ccc([N+](=O)[O-])cc12
inactive: [10] 106 % of control | [11] 101 % of control | [12] 101 % of control

O=C(c1ccccc1)C(Br)C(Br)C(=O)c1ccccc1 (centres undefined)
inactive: [13] 107 % of control | [7] 93 % of control | [1] 91 % of control | [14] 96 % of control | [2] 101 % of control | [8] 88 % of control | [15] 107 % of control | [9] 91 % of control | [3] 90 % of control

CCCCCCCCCOCCOCCOCCN
inactive: dose: 12.0 mg/kg/injection, schedule: Q01DX009 (ip), vehicle: Klucel (hydroxypropylcellulose) (HPC) 99 % of control | [4] 100 % of control | [16] 102 % of control | dose: 50.0 mg/kg/injection, schedule: Q01DX009 (ip), vehicle: Klucel (hydroxypropylcellulose) (HPC) 100 % of control | [17] 96 % of control | [18] 86 % of control

O=C1NC(=O)C([N+](=O)[O-])C(=O)N1
inactive: dose: 12.5 mg/kg/injection, schedule: Q04DX003 (ip), vehicle: saline 104 % of control | [16] 95 % of control | [17] 93 % of control | [19] 98 % of control | [20] 91 % of control

COc1cc(C=Nc2ccc(-c3nc(C)sc3C)cc2)ccc1N(CCOS(C)(=O)=O)CCOS(C)(=O)=O
inactive: [21] 111 % of control | [10] 110 % of control | [22] 121 % of control | [11] 105 % of control | [23] 116 % of control

Cc1c(Cl)cccc1NC(=O)OC(C)C
inactive: [1] 106 % of control | [8] 97 % of control | [3] 97 % of control

Cc1cc(C(N)=O)c(C#N)c(=O)[nH]1
inactive: dose: 75.0 mg/kg/injection, schedule: Q01DX001 (ip), vehicle: steriod suspending solution 94 % of control | dose: 150.0 mg/kg/injection, schedule: Q01DX001 (ip), vehicle: steriod suspending solution 95 % of control

O=C(NCCCl)NC(C1CC1)C1CC1
inactive: [24] 94 % of control | dose: 200.0 mg/kg/injection, schedule: Q01DX009 (ip), vehicle: saline with Tween-80 94 % of control

CCCCCCCCCC(=O)OCCN1CCN(CCCN2c3ccccc3Sc3ccc(C(F)(F)F)cc32)CC1
inactive: dose: 1.56 mg/kg/injection, schedule: Q01DX009 (ip), vehicle: alcohol 107 % of control | dose: 25.0 mg/kg/injection, schedule: Q04DX003 (ip), vehicle: saline with Tween-80 106 % of control

O=C(CCN1CCCCC1)c1ccc([N+](=O)[O-])cc1
inactive: [11] 103 % of control

COc1ccc(/C=C/C(=O)c2ccc(OC)c(OC)c2)cc1O
inactive: [22] 96 % of control | [18] 95 % of control | [23] 120 % of control | [19] 98 % of control | dose: 400.0 mg/kg/injection, schedule: Q01DX009 (ip), vehicle: saline 91 % of control | [20] 95 % of control

Cc1cc(C)c(NC(=S)NC(=O)c2cccc3ccccc23)c(C)c1
inactive: [7] 98 % of control | [1] 103 % of control | [2] 106 % of control | [8] 97 % of control | [9] 95 % of control | [3] 103 % of control

CCc1ccc(N=Nc2ccc(N(C)C)cc2)cc1
inactive: dose: 50.0 mg/kg/injection, schedule: Q04DX003 (ip), vehicle: Klucel (hydroxypropylcellulose) (HPC) 93 % of control | [13] 110 % of control | [1] 96 % of control | [14] 89 % of control | [8] 96 % of control | [15] 101 % of control

c1ccc(-c2ccccn2)nc1
inactive: dose: 100.0 mg/kg/injection, schedule: Q04DX002 (ip), vehicle: saline with Tween-80 107 % of control | dose: 200.0 mg/kg/injection, schedule: Q04DX002 (ip), vehicle: saline with Tween-80 101 % of control | dose: 400.0 mg/kg/injection, schedule: Q04DX002 (ip), vehicle: saline with Tween-80 114 % of control

CC(C)C(C=O)(CCN(C)Cc1ccccc1)c1cccc2ccccc12 (centres undefined)
inactive: dose: 100.0 mg/kg/injection, schedule: Q04DX003 (ip), vehicle: saline with Tween-80 93 % of control | dose: 200.0 mg/kg/injection, schedule: Q04DX003 (ip), vehicle: saline with Tween-80 92 % of control | dose: 400.0 mg/kg/injection, schedule: Q04DX003 (ip), vehicle: saline with Tween-80 100 % of control

COc1ccc(/C=N/O)c(C)c1OC
inactive: [10] 98 % of control | [11] 96 % of control | [12] 96 % of control

Cc1nc2c(O)cccn2c(=O)c1Cl
inactive: [5] 92 % of control | [6] 94 % of control | [24] 97 % of control

Cc1ccc([N+](=O)[O-])cc1NC(=O)Nc1ccc(Nc2ccccc2)cc1
inactive: dose: 100.0 mg/kg/injection, schedule: Q04DX002 (ip), vehicle: Klucel (hydroxypropylcellulose) (HPC) 86 % of control | dose: 200.0 mg/kg/injection, schedule: Q04DX002 (ip), vehicle: Klucel (hydroxypropylcellulose) (HPC) 86 % of control | dose: 400.0 mg/kg/injection, schedule: Q04DX002 (ip), vehicle: Klucel (hydroxypropylcellulose) (HPC) 97 % of control

[I][Ga]([I])[I]
inactive: [10] 101 % of control | [11] 108 % of control | [12] 111 % of control

Cc1ccc(NNC(=O)C(O)C(O)C(O)C(O)CO)cc1 (centres undefined)
inactive: [21] 92 % of control | [22] 96 % of control | [23] 100 % of control

OCC1OC(n2cnc3c(SSc4ncnc5c4ncn5C4OC(CO)C(O)C4O)ncnc32)C(O)C1O (centres undefined)
inactive: [10] 95 % of control | [11] 106 % of control | [12] 121 % of control
